This is an account of results in ChEMBL document CHEMBL1152438, “Design, synthesis, and structure-activity relationships of aminopyridine N-oxides, a novel scaffold for the potent and selective inhibition of p38 mitogen activated protein kinase” (J Med Chem, 2009).

Data set [1] in a line: Solubility at pH 7.4. The format is physicochemical. The following applies: buffer.
A short description of data set [2]: Solubility at pH 9.0. Type of data set: physicochemical. The following applies: buffer.
A short description of data set [3]: Solubility at pH 0.1. The format is physicochemical. The following applies: buffer.
The nature of data set [4]: Cmax in rat at 10 mg/kg, po. Type of data set: ADME, organism-based. Also on record: dose 10 mg/kg, route oral. The settings on record: in vivo.
The nature of data set [5]: Tmax in rat at 10 mg/kg, po. Also on record: dose 10 mg/kg, route oral. The format is ADME, organism-based. The following applies: in vivo.
Data set [6] can be described thus: AUC (0 to 6 hrs) in rat at 10 mg/kg, po. Also on record: time < 6 hr, dose 10 mg/kg, route oral. Type of data set: ADME, organism-based. The following applies: plasma.
The nature of data set [7]: Oral bioavailability in rat at 10 mg/kg. Type of data set: ADME, organism-based. The settings on record: in vivo.
Data set [8] is described as follows: Half life in rat at 0.5 mg/kg, iv. The format is ADME, organism-based. Also on record: dose 0.5 mg/kg, route intravenous. The following applies: in vivo.
A short description of data set [9]: Clearance in rat at 0.5 mg/kg, iv. The format is ADME, organism-based. Also on record: dose 0.5 mg/kg, route intravenous. The following applies: in vivo.
Data set [10] is described as follows: Volume of distribution at steady state in rat at 0.5 mg/kg, iv. The settings on record: in vivo, read-out: Vdss. The format is ADME, organism-based. Also on record: dose 0.5 mg/kg, route intravenous.
The nature of data set [11]: Half life in rat at 1 mg/kg, iv. The format is ADME, organism-based. Also on record: dose 1 mg/kg, route intravenous. The following applies: in vivo.
Data set [12] can be described thus: Clearance in rat at 1 mg/kg, iv. Type of data set: ADME, organism-based. Also on record: dose 1 mg/kg, route intravenous. The following applies: in vivo.
The nature of data set [13]: Volume of distribution at steady state in rat at 1 mg/kg, iv. Type of data set: ADME, organism-based. The settings on record: in vivo, read-out: Vdss. Also on record: dose 1 mg/kg, route intravenous.

≈ marks a conversion by molar mass, not a printed value.

In the case of `Nc1c(C(=O)c2ccc(F)cc2F)cc[n+]([O-])c1-c1c(F)cccc1F`, the solubility was 4 µg/mL (≈ 11 µM) in data set [1] and 2 µg/mL (≈ 5.52 µM) in data set [2].
In the case of `COCCOc1ccc(-c2c(N)c(C(=O)c3ccc(F)cc3F)cc[n+]2[O-])c(C)c1`, the solubility in data set [3] is 24 µg/mL (≈ 57.9 µM); in data set [1], 67 µg/mL (≈ 162 µM); in [2] it was 89 µg/mL (≈ 215 µM).
As for `Cc1ccccc1-c1c(N)c(C(=O)c2ccc(F)cc2F)cc[n+]1[O-]`, the solubility in data set [3] stood at 110 µg/mL (≈ 323 µM); in data set [1] it was 63 µg/mL (≈ 185 µM); in [2] it was 74 µg/mL (≈ 217 µM). In [4], this compound came in with a Cmax of 4.7 µM. The Tmax in [5] is 0.75 h. Further, the AUC(0-t) at 6 h in [6] turned out to be 22.2 µM·h. In [7], the bioavailability was 75%. In [8], the half-life is 1.6 h. In data set [9], this compound displayed a clearance of 16.7 mL/min/kg. Further, the Vd in data set [10] was 2.3 L/kg.
Take `Cc1cc(O)ccc1-c1c(N)c(C(=O)c2ccc(F)cc2F)cc[n+]1[O-]`: the solubility in data set [3] was 44 µg/mL (≈ 123 µM); in [1], 37 µg/mL (≈ 104 µM).
On to `Cc1cccc(C)c1-c1c(N)c(C(=O)c2ccc(F)cc2F)cc[n+]1[O-]`, for which the values for the solubility in data set [3], in data set [1] and in data set [2] were 40 µg/mL (≈ 113 µM), 69 µg/mL (≈ 195 µM) and 70 µg/mL (≈ 198 µM), respectively.
As to `Nc1c(C(=O)c2ccc(F)cc2F)cc[n+]([O-])c1-c1ccccc1Cl`, the solubility in [3] came out at 66 µg/mL (≈ 183 µM); in data set [1] it was 59 µg/mL (≈ 164 µM); in [2] it was 39 µg/mL (≈ 108 µM). The Cmax in data set [4] came out at 11.9 µM. Further, in [5], the Tmax came out at 3.5 h. This compound also had an AUC(0-t) at 6 h in data set [6] of 54.4 µM·h. This compound also showed a half-life in [11] of 14.8 h. Also, the clearance in [12] was 1.7 mL/min/kg. In data set [13], the Vd was determined as 1.8 L/kg. Besides, the bioavailability in data set [7] came to 23%.
Consider `Cc1cc(OCCN2CCOCC2)ccc1-c1c(N)c(C(=O)c2ccc(F)cc2F)cc[n+]1[O-]`, for which the solubility is more than 1000 µg/mL in data set [3] and 51 µg/mL (≈ 109 µM) in data set [1].
As for `Cc1cc(C(=O)O)ccc1-c1c(N)c(C(=O)c2ccc(F)cc2F)cc[n+]1[O-]`, the solubility is 41 µg/mL (≈ 107 µM) in [3], more than 1000 µg/mL in data set [1] and more than 1000 µg/mL in data set [2].
Take `COCCNC(=O)c1ccc(-c2c(N)c(C(=O)c3ccc(F)cc3F)cc[n+]2[O-])c(C)c1`: the solubility in data set [3] turned out to be 54 µg/mL (≈ 122 µM); in data set [1], 46 µg/mL (≈ 104 µM); in [2], 49 µg/mL (≈ 111 µM).
